Like-named read-outs stand apart in the source and are kept apart here.
How the values were obtained:
Assay type in all cases: cell-based
MRC-5 cell line = test: Cell viability assay for MRC-5 cell line (EZ-Cytox); conditions: for IC50: Homo sapiens, MRC5, 120 h
Protocol: 4. Cell Viability Assay for MRC-5 Cell Line
(1) Culture of MRC-5 Cell Line
The MRC-5 cell line was purchased from KCLB. Passage of cultured cells was maintained within P15.
(2) Treatment of Compounds of the Present Invention
Then, it was cultured in 37° C. CO2 incubator (Thermo Fisher Scientific) for 5 days.
(3) Cytotoxicity Experiment
CO2 incubator for 4 hours.

NCI-H526 cell line = test: Cell viability assay for NCI-H526 cell line (EZ-Cytox); conditions: Homo sapiens, NCI-H526, 120 h; H526 cells, 5 days, 3000 nM to 0.46 nM
Protocol: (§1) 3. Cell Viability Assay for NCI-H69, NCI-H526 Cell Lines
(§2) (1) Culture of NCI-H69, NCI-H526 Cell Lines
(§3) The NCI-H69 (hereafter H69) and NCI-H526 (hereafter H526) cell lines were purchased from KCLB.
(§4) (2) Treatment of Compounds of the Present Invention and Method of Cell Viability Assay
(§5) After treating the compound to each well to make the total volume of 200 μl, it was cultured in a CO2 incubator (Thermo Fisher Scientific) for 5 days. […] The absorbance of the completely cultured sample was measured by setting the wavelength of a plate reader (BMG Labtech) to […], and was measured after shaking for 3 minutes in a plate reader before measurement.
(§6) The results of cell viability for H526 and H69 cell line are shown in Table 3 and Table 4, respectively.
(§7) In Table 3 and Table 4, Activity represents IC50 value of each Exemplary Compound treatment group to H526 and H69 cell line, respectively (A: <30 nM, B: <50 nM, C: <100 nM, D: <200 nM, E: <400 nM).

NCI-H69 cell line = test: Cell viability assay for NCI-H69 cell line (EZ-Cytox); conditions: Homo sapiens, NCI-H69, 120 h; H69 cells, 5 days, 3000 nM to 0.46 nM
Protocol: as §1, §2, §3, §4, §5, §6, §7

PLK1 = molecular target: T1, PLK1 (Homo sapiens, UniProt P53350); test: Luciferase assay for PLK1 in HeLa LgBit (Plk1-HiBit KI) cell line; conditions: 300 nM compound, luminescence after 9 hours
T1 construct: endogenous in cells; host or cells: HeLa LgBit (Plk1-HiBit KI): HeLa stably expressing LgBit, with a CRISPR/Cas9 knock-in of HiBit at the endogenous PLK1 locus
T1 sequence (P53350 whole entry): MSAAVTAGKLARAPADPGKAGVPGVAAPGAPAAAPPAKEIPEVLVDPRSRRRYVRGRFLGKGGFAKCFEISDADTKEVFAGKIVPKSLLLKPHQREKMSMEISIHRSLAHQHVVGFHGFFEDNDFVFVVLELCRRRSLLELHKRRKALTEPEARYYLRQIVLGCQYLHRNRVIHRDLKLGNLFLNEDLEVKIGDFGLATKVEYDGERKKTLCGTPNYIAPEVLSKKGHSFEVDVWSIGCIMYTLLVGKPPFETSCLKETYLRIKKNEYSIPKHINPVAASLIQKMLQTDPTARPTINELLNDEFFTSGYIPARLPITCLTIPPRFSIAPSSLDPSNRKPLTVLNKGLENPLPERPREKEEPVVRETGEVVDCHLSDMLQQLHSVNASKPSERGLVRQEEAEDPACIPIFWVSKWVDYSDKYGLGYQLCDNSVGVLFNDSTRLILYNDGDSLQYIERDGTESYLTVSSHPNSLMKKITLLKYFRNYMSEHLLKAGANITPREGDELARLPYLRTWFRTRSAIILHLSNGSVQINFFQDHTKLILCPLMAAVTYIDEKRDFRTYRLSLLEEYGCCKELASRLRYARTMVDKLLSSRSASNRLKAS
Protocol: 2. Luciferase Assay for PLK1
(1) Preparation and Culture of HeLa LgBit (Plk1-HiBit KI) Cell Line
A HeLa cell line in which the LgBit vector was transfected and expressed stably was prepared. Then, after constructing gRNA and donor to express the HiBit amino acid sequence behind the C-terminal of the PLK1 gene, which was inherent in the cell, it was inserted into the cell together with a vector capable of expressing CRISPR/Cas9. Only the cells in which the insertion was completed and knock-in had progressed were selected, sub-cultured and used.
For cell culture, DMEM (Gibco), FBS (Gibco), PS (Gibco), […] cell culture dish (SPL), […] cell culture dish (SPL), 96-well culture plate (SPL), PBS pH 7.4 (Gibco), TrypLE™ Express (Gibco), Cell counter (Thermo Fisher Scientific) and 0.4% Trypan Blue Solution (DYNEBIO) were used.
(2) Treatment of Compounds of the Present Invention and Method of Luciferase Assay
In the case of HeLa LgBit (Plk1-HiBit KI), the compounds were treated after being released after thymidine block, and the process was as follows. Thymidine (Sigma-Aldrich) was completely dissolved in ddH2O and used in the experiment. For thymidine block, the products were treated with 2 mM of thymidine and then incubated for 24 hours. For release and chemical treatment, the medium was suctioned and washed with 1×PBS. TrypLE™ (Gibco) was added and incubated in 37° C. CO2 incubator (Thermo Fisher Scientific) for 5 mins. Cells neutralized by adding complete media were counted through a counter. For each well of a 96-well culture plate (SPL), 3.3×10^4 cells and a total medium volume of 150 μl were seeded and incubated in a CO2 incubator.
Each cell line was incubated in a CO2 incubator for 18 hours, and Endurazine (Promega, Cat. No. N257B) was added to each well to make up 4% of the total volume. After adding compounds of Examples in a 96-well white plate (SPL) to a concentration of 300 nM, the wavelength of the plate reader (BMG Labtech, CLARIOstar Plus) was set to 470-480 nm, and then the luminescence was tracked in real time.
In Table 2, Activity represents the ratio of the luminescence value of each Exemplary Compound treatment group to DMSO treatment group (+++: <0.3, ++: <0.5, +: <0.7).

[1] = read-out: Activity: IC50 value, cell viability, MRC-5 cell line (Comparative Compounds)
[2] = MRC-5 normal cell line, 5 days, 10000 nM to 1.52 nM, read-out: Activity: IC50 value, cell viability, MRC-5 cell line (Exemplary Compounds)

Structure (SMILES)	Cytotoxicity in normal cell line versus cancer cell lines (in words) (MRC-5 cell line; MRC-5 normal cell line compared with cancer cell lines)	IC50 (MRC-5 cell line; [1]) [nM]	IC50 (NCI-H526 cell line) [nM]	IC50 (NCI-H69 cell line) [nM]	Activity: ratio of the luminescence value of compound treatment group to DMSO treatment group (PLK1)	IC50 (MRC-5 cell line; [2]) [nM]
CC[C@@H]1C(=O)N(C)c2cnc(Nc3ccc(C(=O)NCCOCCOCCNc4cccc5c4C(=O)N(C4CCC(=O)NC4=O)C5=O)cc3OC)nc2N1C1CCCC1 (some centres unmarked) [Comparative Compound 1, reference compound]	exhibited a high level of cytotoxicity in normal cell line	–	–	–	–	–
CC[C@@H]1C(=O)N(C)c2cnc(Nc3ccc(C(=O)NC4CCN(C)CC4)cc3OC)nc2N1C1CCCC1 [Comparative Compound 2, BI2536, reference compound]	–	3090	–	–	–	–
CC[C@@H]1C(=O)N(C)c2cnc(Nc3ccc(C(=O)N[C@H]4CC[C@H](N5CCN(CC6CC6)CC5)CC4)cc3OC)nc2N1C(C)C [Comparative Compound 3, Volasertib, reference compound]	–	2940	–	–	–	–
COc1cc(C(=O)NC2CCN(C)CC2)c(F)cc1Nc1ncc2c(n1)N(C1CCCC1)CC(F)(F)C(=O)N2C [Comparative Compound 4, TAK960, reference compound]	–	9150	–	–	–	–
COc1cc(C(=O)NN2CCC(N3CC4(CCN(c5cccc(C6CCC(=O)NC6=O)c5)CC4)C3)CC2)ccc1Nc1ncc2c(n1)N(C1CCCC1)CC(F)(F)C(=O)N2C (centres unmarked) [Compound 1, 4-((9-cyclopentyl-7,7-difluoro-5-methyl-6-oxo-6,7,8,9-tetrahydro-5H-pyrimido[4,5-b][1,4]diazepin-2-yl)amino)-N-(4-(7-(3-(2,6-dioxopiperidin-3-yl)phenyl)-2,7-diazaspiro[3.5]nonan-2-yl)piperidin-1-yl)-3-methoxybenzamide]	–	–	< 30	< 50	++ (++: <0.5)	> 10000
COc1cc(C(=O)NN2CCC(C3CCN(c4ccc(C5CCC(=O)NC5=O)cc4F)C3)CC2)ccc1Nc1ncc2c(n1)N(C(C)C)CC(F)(F)C(=O)N2C (centres unmarked) [Compound 2, 4-((7,7-difluoro-9-isopropyl-5-methyl-6-oxo-6,7,8,9-tetrahydro-5H-pyrimido[4,5-b][1,4]diazepin-2-yl)amino)-N-(4-(1-(4-(2,6-dioxopiperidin-3-yl)-2-fluorophenyl)pyrrolidin-3-yl)piperidin-1-yl)-3-methoxybenzamide]	–	–	< 50	< 100	++ (++: <0.5)	> 10000
COc1cc(C(=O)NC2CCN(C3CN(c4ccc(C5CCC(=O)NC5=O)cc4F)C3)CC2)ccc1Nc1ncc2c(n1)N(C(C)C)CC(F)(F)C(=O)N2C (centres unmarked) [Compound 3, 4-((7,7-difluoro-9-isopropyl-5-methyl-6-oxo-6,7,8,9-tetrahydro-5H-pyrimido[4,5-b][1,4]diazepin-2-yl)amino)-N-(1-(1-(4-(2,6-dioxopiperidin-3-yl)-2-fluorophenyl)azetidin-3-yl)piperidin-4-yl)-3-methoxybenzamide]	–	–	< 50	< 100	++ (++: <0.5)	> 10000
CCN1CC(F)(F)C(=O)N(C)c2cnc(Nc3ccc(C(=O)NC4CC5(CCN(CC6CCN(c7ccc(C8CCC(=O)NC8=O)cc7F)CC6)CC5)C4)cc3OC)nc21 (centres unmarked) [Compound 4, N(7-((1-(4-(2,6-dioxopiperidin-3-yl)-2-fluorophenyl)piperidin-4-yl)methyl)-7-azaspiro[3.5]nonan-2-yl)-4-((9-ethyl-7,7-difluoro-5-methyl-6-oxo-6,7,8,9-tetrahydro-5H-pyrimido[4,5-b][1,4]diazepin-2-yl)amino)-3-methoxybenzamide]	–	–	< 30	< 30	–	> 10000
COc1cc(C(=O)NC2CC3(CCN(CC4CCN(c5ccc(C6CCC(=O)NC6=O)cc5F)CC4)CC3)C2)ccc1Nc1ncc2c(n1)N(C)CC(F)(F)C(=O)N2C (centres unmarked) [Compound 5, 4-((7,7-difluoro-5,9-dimethyl-6-oxo-6,7,8,9-tetrahydro-5H-pyrimido[4,5-b][1,4]diazepin-2-yl)amino)-N-(7-((1-(4-(2,6-dioxopiperidin-3-yl)-2-fluorophenyl)piperidin-4-yl)methyl)-7-azaspiro[3.5]nonan-2-yl)-3-methoxybenzamide]	–	–	< 100	< 100	++ (++: <0.5)	> 10000
COc1cc(C(=O)NC2CC3(CCN(CCC4CCN(c5ccc(NC6CCC(=O)NC6=O)cc5F)CC4)CC3)C2)ccc1Nc1ncc2c(n1)N(C(C)C)CC(F)(F)C(=O)N2C (centres unmarked) [Compound 31, 4-((7,7-difluoro-9-isopropyl-5-methyl-6-oxo-6,7,8,9-tetrahydro-5H-pyrimido[4,5-b][1,4]diazepin-2-yl)amino)-N-(7-(2-(1-(4-((2,6-dioxopiperidin-3-yl)amino)-2-fluorophenyl)piperidin-4-yl)ethyl)-7-azaspiro[3.5]nonan-2-yl)-3-methoxybenzamide]	–	–	< 30	< 30	+++ (+++: <0.3)	–
COc1cc(C(=O)NC2CC3(CCN(CCC4CCN(c5cc(F)c(NC6CCC(=O)NC6=O)cc5F)CC4)CC3)C2)ccc1Nc1ncc2c(n1)N(C(C)C)CC(F)(F)C(=O)N2C (centres unmarked) [Compound 61, 4-((7,7-difluoro-9-isopropyl-5-methyl-6-oxo-6,7,8,9-tetrahydro-5H-pyrimido[4,5-b][1,4]diazepin-2-yl)amino)-N-(7-(2-(1-(4-((2,6-dioxopiperidin-3-yl)amino)-2,5-difluorophenyl)piperidin-4-yl)ethyl)-7-azaspiro[3.5]nonan-2-yl)-3-methoxybenzamide]	–	–	< 30	< 30	++ (++: <0.5)	–
COc1cc(C(=O)NC2CCN(CCC3CCN(c4cc(F)c(NC5CCC(=O)NC5=O)cc4F)CC3)CC2)ccc1Nc1ncc2c(n1)N(C(C)C)CC(F)(F)C(=O)N2C (centres unmarked) [Compound 62, 4-((7,7-difluoro-9-isopropyl-5-methyl-6-oxo-6,7,8,9-tetrahydro-5H-pyrimido[4,5-b][1,4]diazepin-2-yl)amino)-N-(1-(2-(1-(4-((2,6-dioxopiperidin-3-yl)amino)-2,5-difluorophenyl)piperidin-4-yl)ethyl)piperidin-4-yl)-3-methoxybenzamide]	–	–	< 30	< 30	++ (++: <0.5)	–
COc1cc(C(=O)NC2CC3(CCN(CC4CCN(c5cc(F)c(NC6CCC(=O)NC6=O)cc5F)CC4)CC3)C2)ccc1Nc1ncc2c(n1)N(C1CCCC1)CC(F)(F)C(=O)N2C (centres unmarked) [Compound 70, 4-((9-cyclopentyl-7,7-difluoro-5-methyl-6-oxo-6,7,8,9-tetrahydro-5H-pyrimido[4,5-b][1,4]diazepin-2-yl)amino)-N-(7-((1-(4-((2,6-dioxopiperidin-3-yl)amino)-2,5-difluorophenyl)piperidin-4-yl)methyl)-7-azaspiro[3.5]nonan-2-yl)-3-methoxybenzamide]	–	–	< 30	< 30	+++ (+++: <0.3)	–
